Source: patent publication US9119816B2, “Method for prevention or treatment of diabetic angiogenesis impairment using C-peptide” (KANGWON NATIONAL UNIVERSITY UNIVERSITY-INDUSTRY COOPERATION …, priority 2012, dated 2015)
“Also recorded” adds a separate entry of the source.

How the values were obtained:
HUVECs [1] = assay: Inhibition of C-peptide-induced tube formation by HUVECs; assay type: cell-based, human; settings: 0.5 nM C-peptide, 24-30 h
Protocol: (§1) FIG. 4A is a graph in which tube formation is quantified by confocal microscopy and results are represented as mean±S.D. from three independent experiments after HUVECs were seeded onto a Matrigel layer and incubated for 24-30 h with 0.5 nM C-peptide (C-pep) in the presence of the indicated concentrations of L-NAME, PD98058, and wortmannin, and
(§2) The formation of capillary-like networks by HUVECs on growth factor-reduced Matrigel (BD Biosciences, Franklin Lakes, N.J.) was achieved using a method known in the art. Briefly, 24-well culture plates were coated with Matrigel according to the manufacturer's instructions. HUVECs were seeded onto a layer of Matrigel at a density of 4×10^5 cells/well, and treated with VEGF or C-peptide at 37° C. for 24 to 30 h. The degree of tube formation was quantified by measuring the length of tubes from the images using the FV-300 software.
(§3) The roles of ERK1/2, PI3K/Akt, and NO in C-peptide-induced angiogenesis were examined using PD98059, wortmannin, and L-NG-nitroarginine methyl ester (L-NAME), respectively.

HUVECs [2] = assay: Inhibition of VEGF-induced tube formation by HUVECs; assay type: cell-based, human; settings: 10 ng/ml VEGF, 24-30 h
Protocol: as §1, with “4B” for “4A”, “10 ng/ml VEGF” for “0.5 nM C-peptide (C-pep)”, “wortmannin.” for “wortmannin, and”
as §2, §3

HUVECs [3] = assay: Transwell migration assay (HUVECs); assay type: cell-based, human; settings: 12 h; for chemotactic migration of endothelial cells: VEGF 10 ng/ml
Protocol: HUVECs were isolated from the human umbilical cord vein according to a well known process, and cells from passages 3 to 6 were used in the following experiments. Cells were inoculated into M199 culture media (supplemented with 20% FBS, 3 ng/ml bFGF, 5 U/ml heparin, 100 U/ml penicillin, and 100 μg/ml streptomycin) in 2% gelatin-coated coverslips, dishes, or plates, and grown at 37° C. in a humidified 5% CO2 incubator.
For experiments, cells were serum starved for 6 h by incubation in low-serum medium (M199 supplemented as above, but with only 1% FBS), and treated for a suitable time with 10 ng/ml VEGF in the presence or absence of various concentrations of C-peptide.
(§4) Angiogenesis is accompanied by endothelial cell migration and capillary-like network formation. To evaluate the ability of C-peptide to induce angiogenesis by examining whether C-peptide stimulates endothelial cell migration, the chemotactic motility of HUVECs and NIH3T3 cells were assayed using TRANSWELL® Permeable Supports (Costar, Corning, N.Y.).
(§5) In detail, the lower surface of the filters was coated with 5 μl of 2% gelatin. Low-serum media containing VEGF, FGF-2 or C-peptide were placed in the lower wells. HUVECs or NIH3T3 cells were seeded at a density of 1×10^5 cells per 200 μl of the low-serum medium in each of the upper wells, and incubated at 37° C. for 12 h. Cells were fixed with 100% methanol for 15 min, stained with hematoxylin and eosin, and dried. The average number of migrated cells in three randomly chosen fields of view per insert was taken to quantify the extent of migration using a fluorescence inverted microscope (Olympus).

NIH3T3 cells [4] = assay: Transwell migration assay (NIH3T3 fibroblasts); assay type: cell-based; settings: 12 h; for chemotactic migration of fibroblast cells: FGF-2 1 ng/ml
Protocol: NIH3T3 fibroblasts obtained from ATCC (American Type Culture Collection) were grown in a DMEM medium supplemented with 10% calf serum, 100 U/ml penicillin, and 100 μg/ml streptomycin.
NIH3T3 cells were serum starved for 12 hrs in a low-serum medium (DMEM supplemented as above, but with only 0.1% calf serum).
as §4, §5
To elucidate the role of C-peptide in the migration of chemotactic fibroblast cells, NIH3T3 cells were treated with C-peptide for 12 h.

HUVECs [5] = assay: Wound healing (scratch) assay (HUVECs); assay type: cell-based, human; settings: 24 h, C-peptide 0.5 nM, VEGF 10 ng/ml, p<0.01
Protocol: (§6) HUVECs and NIH3T3 cells were cultured on 6-well culture plates coated with gelatin. After being obtained, confluent cell layers were starved with low-serum media for 6 h, stained with 1 μM calcein-AM for 30 min, and wounded with a plastic scraper. Low-serum media and cell debris were removed, followed by replenishing the cell culture with 2 ml of low-serum media containing VEGF or C-peptide. Cells were then incubated at 37° C. for 24 h. Migrated cells was counted from images obtained using a confocal microscope (FV-300, Olympus).

NIH3T3 cells [6] = assay: Wound healing (scratch) assay (NIH3T3 fibroblasts); assay type: cell-based; settings: NIH3T3, 24 h; C-peptide 0.5 nM, FGF-2 1 ng/ml; p<0.01
Protocol: as §6
C-peptide-induced cell migration was further investigated by the wound-healing assay. […] FGF-2 also stimulated chemotactic migration and wound healing in fibroblast cells (p<0.01; FIG. 6).

HUVECs [7] = assay: Tube formation assay on Matrigel; assay type: cell-based, human; settings: 24 to 30 h; for formation of capillary-like networks (tube formation): VEGF 10 ng/ml
Protocol: To examine whether C-peptide can activate angiogenesis in vitro, a tube formation assay was conducted in a Matrigel layer using HUVECs.
as §2

[8] = In vivo Matrigel plug assay; settings: mice, s.c. 0.5 ml Matrigel with 5 nM C-peptide or 100 ng/ml VEGF, 7 days, compared with control
Protocol: (§7) Male C57BL/6 mice, six weeks old, were purchased from Nara Biotech (Seoul, Korea). The mice were maintained in temperature-controlled clean racks with a 12-h light/dark cycle. All experiments were performed in accordance with the guidelines of the Institutional Animal Care and Use Ethics Committee of Kangwon National University.
A matrigel plug assay was used to examine whether C-peptide can induce angiogenesis in vivo. In this regard, in vivo Matrigel plug assays were performed according to a method known in the art.
Briefly, mice were injected subcutaneously with 0.5 ml of Matrigel containing 100 ng/ml VEGF or 5 nM C-peptide, and 10 U heparin. After 7 days, the Matrigel plugs were removed from the subcutaneous region, and photographed using a camera (Sony, Japan).

ERK1/2 = ERK1/2 phosphorylation by Western blot in HUVECs; assay type: cell-based, human; settings: for ERK1/2 phosphorylation: 0.5 nM C-peptide or 10 ng/ml VEGF, time-dependent
Protocol: (§8) Since the activation of ERK1/2 and Akt is critical for the induction of cell migration and tube formation, an examination was made of the effect of C-peptide on ERK1/2 and AKT phosphorylation in HUVECs.
(§9) Phosphorylation of ERK1/2 and Akt was determined by Western blot analyses. Briefly, HUVECs were scraped off with ice-cold lysis buffer (50 mM Tris-HCl, pH 7.5, 1% Triton X-100, 150 mM NaCl, 1 mM EDTA, 0.1 mM PMSF, 10 μg/mL aprotinin, and 10 μg/mL leupeptin) and centrifuged at 18,000 g for 10 min at 4° C. The resulting cell lysates were separated by SDS-PAGE and transferred to polyvinylidene fluoride membranes.
(§10) Protein bands were visualized by exposure to X-ray films and a chemiluminescent substrate (Pierce, Rockford, Ill.). Levels of protein phosphorylation were normalized using the total amount of the proteins, and are expressed relative to unstimulated control levels (CON) in FIGS. 3A and 3B.

Akt = Akt phosphorylation by Western blot in HUVECs; assay type: cell-based, human; settings: for Akt phosphorylation: 0.5 nM C-peptide or 10 ng/ml VEGF, time-dependent
Protocol: as §8, §9, §10

NO = assay: Intracellular NO production (DAF-FM DA, confocal microscopy) in HUVECs; assay type: cell-based, human; settings: 2 h, 0.5 nM C-peptide (p<0.05) or 10 ng/ml VEGF (p<0.01)
Protocol: Since phosphorylation of Akt increases NO production by VEGF, which is the important factor mediating angiogenesis, an examination was made to see whether C-peptide can stimulate NO production. For this, intracellular NO levels were measured using DAF-FM DA (diaminofluorescein-FM diacetate, Molecular Probes, Eugene, Oreg.) according to a method known in the art.
Briefly, HUVECs were treated with VEGF or C-peptide in phenol red-free low-serum media for indicated times and incubated with 2 μM DAF-FM DA for the final 1 h. Thereafter, the cells were washed with low-serum media before confocal microscropy. Levels of intracellular NO were determined by comparing the fluorescence intensities of treated cells with those of untreated control cells and expressing them as fold differences.

[9] = Cutaneous wound healing in streptozotocin-induced diabetic mice; assay type: in vivo
Protocol: as §7
Diabetic mice were generated by single intraperitoneal injection of a 100 mM citrate buffer (pH 4.5) containing streptozotocin in (150 mg/kg body weight). After injection, mice were supplied overnight with 10% sucrose to prevent sudden hypoglycemic shock. Sufficient hyperglycemia was observed two days after injection, as measured for blood glucose by the Accu-Check Active blood glucose monitor (Roch Diagnostics, Germany) and for glucosurea by Uriscan (TD Diagnostics, Young-In, Korea). After 1 week, mice with non-fasting blood glucose levels greater than 16 mM, polyuria, and glucosuria were defined diabetic and used for experiment. […]
The dorsal skin of the vertebral column was shaved with Veet cream before creating a wound. Full-thickness skin wounds, 4 mm in diameter, were created on the dorsal surface of the hind limbs with a biopsy punch, and closure was monitored with a digital camera. Open wound size was measured by tracing the wound margin using vernier calipers at regular intervals of two days, and monitored with a digital camera. […]

[10] = Hair follicle regeneration and blood vessel formation around wound (whole-mount PECAM-1 immunostaining); assay type: in vivo; settings: diabetic mice + C-peptide vs diabetic mice, 14 days after wounding
Protocol: The effect of C-peptide on the regeneration of hair follicles and the formation of blood vessels was observed by whole-mount immunostaining. In this regard, 14 days after wounding, mice were sacrificed, and the dorsal skin was removed for observation of hair follicles and blood vessels. Skin tissues from all the dead mice were excised using a scissor in order to avoid damaging its healing edge, fixed immediately in 4% paraformaldehyde in PBS overnight, and stored overnight in methanol at −20° C. For immunohistochemistry, tissue samples were blocked with 2% BSA in 0.1% TritonX-100 in TBS, and incubated with goat-polyclonal platelet endothelial cell adhesion molecule-I antibody for 2 d, followed by probing with Alexa-546-conjugated rabbit anti-goat IgG and then confocal microscopy.

Row | Compound | inhibition of C-peptide-stimulated tube formation (HUVECs [1]) | effect on VEGF-induced tube formation (HUVECs [2]) | chemotactic migration of endothelial cells (HUVECs [3]) | chemotactic migration of fibroblast cells (NIH3T3 cells [4]) | cell migration to the wounded area (HUVECs [5]) | cell migration to the wounded area (fibroblasts) (NIH3T3 cells [6]) | formation of capillary-like networks (tube formation) (HUVECs [7]) | new blood vessel formation in Matrigel plug [8] | ERK1/2 phosphorylation (ERK1/2) | Akt phosphorylation (Akt) | level of intracellular NO (NO) | other results
1 | COC(=O)[C@@H](N)CCCNC(=N)N[N+](=O)[O-] [L-NAME, L-NG-nitroarginine methyl ester] | dose-dependent inhibition | prevented | – | – | – | – | – | – | – | – | – | –
2 | COc1cccc(-c2cc(=O)c3ccccc3o2)c1N [PD98059] | inhibited | prevented | – | – | – | – | – | – | – | – | – | concentration of maximal inhibition of C-peptide-stimulated tube formation (HUVECs [1]): 10 µM
3 | C-peptide | – | – | dose-dependent increase | dose-dependent increase | significantly stimulated | significantly stimulated | stimulated | significantly higher induction | increased | induced | significantly elevated | concentration of maximal effect on chemotactic migration of endothelial cells (HUVECs [3]): 0.5 nM; concentration of maximal effect on chemotactic migration of fibroblast cells (NIH3T3 cells [4]): 1 nM; concentration of maximal effect on formation of capillary-like networks (HUVECs [7]): 0.5 nM; ERK1/2 activation maintained until (ERK1/2; 0.5 nM C-peptide): 60 min; time of maximal stimulation of ERK1/2 phosphorylation (ERK1/2; 0.5 nM C-peptide): 15 min; time of maximal effect on Akt phosphorylation (Akt; 0.5 nM C-peptide): 15 min; wound area versus normal mice ([9]; STZ-diabetic mice, C-peptide 35 pmol/kg/min s.c. osmotic pump, 4 mm wound, 4 and 10 days after skin injury): no significant differences; wound closure compared with diabetic mice ([9]; diabetic mice + C-peptide vs diabetic mice): accelerated; regeneration (number) of hair follicles around wound [10]: significant increase; also recorded: increased; formation (number) of blood vessels around wound ([10]; PECAM-1 staining): significant increase; also recorded: increased
4 | FGF-2: growth factor used as comparator for fibroblast migration [reference compound] | – | – | – | stimulated | – | stimulated | – | – | – | – | – | –
5 | vascular endothelial growth factor [VEGF, reference compound] | – | – | stimulated | – | stimulated | – | induced | similar | induced | induced | higher level | –
